Data: patent US8987268B2, “Pyrrolopyridazine JAK3 inhibitors and their use for the treatment of inflammatory and autoimmune diseases” (Bristol-Myers Squibb Company, priority 2011, dated 2015)
Counter-ions that a name gives are not always drawn.

Key:
GST-JAK3 enzyme = GST-JAK3 enzyme (Homo sapiens (Human), UniProt P52333); assay: JAK3 Kinase Assay Protocol (Caliper); type: biochemical; settings: JAK3 kinase inhibition; read-out: LLE_JAK3_FB (IC50)
Experimental: JAK3 Kinase Assay Protocol (Caliper)
(§1) The assay reactions were performed in U-bottom 384-well plates. […] The reaction was initiated by the combination of GST-JAK3 enzyme with substrates and test compounds. The reactions were incubated at room temperature for 3 hours and terminated by adding 60 μl of 35 mM EDTA to each sample. Each reaction mixture was analyzed on the Caliper LabChip 3000 (Caliper, Hopkinton, Mass.) by electrophoretic separation of the fluorescent substrate and phosphorylated product. […] Compounds were dissolved at 10 mM in dimethylsulfoxide (DMSO) and evaluated at eleven concentrations. IC50 values were derived by non-linear regression analysis.

GST-JAK1 enzyme = GST-JAK1 enzyme (Homo sapiens (Human), UniProt P23458); assay: JAK1 Kinase Assay Protocol; type: biochemical; settings: JAK1 kinase inhibition; read-out: LLE_JAK1 (IC50)
Sequence of GST-JAK1 enzyme (P23458 whole entry): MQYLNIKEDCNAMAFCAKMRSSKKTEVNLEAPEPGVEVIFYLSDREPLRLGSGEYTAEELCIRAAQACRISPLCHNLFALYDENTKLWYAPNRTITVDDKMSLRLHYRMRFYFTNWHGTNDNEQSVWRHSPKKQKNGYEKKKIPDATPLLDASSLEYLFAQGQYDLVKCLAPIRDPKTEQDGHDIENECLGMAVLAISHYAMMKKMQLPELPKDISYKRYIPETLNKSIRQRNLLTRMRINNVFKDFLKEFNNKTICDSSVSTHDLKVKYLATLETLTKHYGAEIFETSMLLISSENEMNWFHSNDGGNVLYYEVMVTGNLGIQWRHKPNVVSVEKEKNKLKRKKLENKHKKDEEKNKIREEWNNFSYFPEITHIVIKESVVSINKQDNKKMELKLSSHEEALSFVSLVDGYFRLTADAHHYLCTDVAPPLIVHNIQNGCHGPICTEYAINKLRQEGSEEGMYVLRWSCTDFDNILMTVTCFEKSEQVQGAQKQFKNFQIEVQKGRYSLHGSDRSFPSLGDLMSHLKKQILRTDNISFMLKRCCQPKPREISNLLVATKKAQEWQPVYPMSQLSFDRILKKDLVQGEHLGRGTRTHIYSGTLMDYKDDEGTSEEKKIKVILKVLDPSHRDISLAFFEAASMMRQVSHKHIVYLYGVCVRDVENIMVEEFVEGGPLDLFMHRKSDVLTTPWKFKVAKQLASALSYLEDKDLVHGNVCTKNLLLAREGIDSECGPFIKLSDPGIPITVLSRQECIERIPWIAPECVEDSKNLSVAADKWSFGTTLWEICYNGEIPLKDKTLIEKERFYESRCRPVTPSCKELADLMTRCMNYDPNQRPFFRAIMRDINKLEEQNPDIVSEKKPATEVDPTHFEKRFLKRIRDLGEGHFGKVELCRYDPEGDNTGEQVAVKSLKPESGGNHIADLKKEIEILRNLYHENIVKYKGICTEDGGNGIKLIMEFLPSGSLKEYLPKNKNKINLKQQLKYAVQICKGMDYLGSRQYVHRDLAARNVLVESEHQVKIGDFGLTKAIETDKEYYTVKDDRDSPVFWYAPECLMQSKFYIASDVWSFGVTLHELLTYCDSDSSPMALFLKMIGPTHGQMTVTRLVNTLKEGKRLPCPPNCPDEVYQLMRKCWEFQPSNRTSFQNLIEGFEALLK
Experimental: JAK1 Kinase Assay Protocol
as §1, with “GST-JAK1” for “GST-JAK3”

Sequence of GST-JAK3 enzyme (P52333 whole entry): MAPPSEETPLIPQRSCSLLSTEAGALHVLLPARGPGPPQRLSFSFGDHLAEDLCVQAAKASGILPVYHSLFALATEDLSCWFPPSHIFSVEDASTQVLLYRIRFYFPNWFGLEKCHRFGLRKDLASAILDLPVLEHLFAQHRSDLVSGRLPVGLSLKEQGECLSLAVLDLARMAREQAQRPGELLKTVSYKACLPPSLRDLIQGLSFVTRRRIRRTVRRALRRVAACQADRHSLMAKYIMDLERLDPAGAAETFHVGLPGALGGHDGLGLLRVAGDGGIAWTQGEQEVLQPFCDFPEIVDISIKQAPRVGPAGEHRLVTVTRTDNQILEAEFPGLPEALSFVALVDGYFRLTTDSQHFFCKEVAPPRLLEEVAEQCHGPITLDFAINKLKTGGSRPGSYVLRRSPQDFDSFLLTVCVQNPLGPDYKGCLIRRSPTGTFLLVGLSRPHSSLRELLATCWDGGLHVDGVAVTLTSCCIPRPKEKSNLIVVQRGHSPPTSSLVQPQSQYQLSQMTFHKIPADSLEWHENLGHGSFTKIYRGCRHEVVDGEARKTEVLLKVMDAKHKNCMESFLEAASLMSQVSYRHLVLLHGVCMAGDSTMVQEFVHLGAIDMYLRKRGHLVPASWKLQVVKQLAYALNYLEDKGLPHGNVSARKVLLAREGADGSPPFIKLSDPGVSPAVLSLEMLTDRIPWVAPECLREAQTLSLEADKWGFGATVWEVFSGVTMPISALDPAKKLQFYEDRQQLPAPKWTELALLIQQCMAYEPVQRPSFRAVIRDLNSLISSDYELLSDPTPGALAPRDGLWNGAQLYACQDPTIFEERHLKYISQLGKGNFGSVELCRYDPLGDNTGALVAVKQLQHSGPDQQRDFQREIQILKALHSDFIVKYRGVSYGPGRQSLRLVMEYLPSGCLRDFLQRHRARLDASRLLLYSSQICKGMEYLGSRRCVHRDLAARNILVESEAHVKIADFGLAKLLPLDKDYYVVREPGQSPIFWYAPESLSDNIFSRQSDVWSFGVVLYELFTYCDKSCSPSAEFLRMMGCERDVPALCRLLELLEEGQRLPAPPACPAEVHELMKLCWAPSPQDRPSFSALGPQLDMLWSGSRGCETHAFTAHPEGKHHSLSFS

Row | Structure (SMILES) | IC50 (GST-JAK3 enzyme) | IC50 (GST-JAK1 enzyme)
1 | CC1(F)COCC1Nc1c(C(N)=O)cnn2cc(N3CCCC3=O)cc12 (centres unmarked) [Example 40, 4-(4-fluoro-4-methyltetrahydrofuran-3-ylamino)-6-(2-oxopyrrolidin-1-yl)pyrrolo[1,2-b]pyridazine-3-carboxamide] | 15.1 nM | 40.3 nM
2 | NC(=O)c1cnn2cc(-c3ccccc3F)cc2c1NC1CCOCC1 [Example 34, 6-(2-fluorophenyl)-4-(tetrahydro-2H-pyran-4-ylamino)pyrrolo[1,2-b]pyridazine-3-carboxamide] | 40 nM | 80 nM
3 | CO[C@H]1CN(C(=O)C2(C#N)CC2)C[C@H]1Nc1c(C(N)=O)cnn2cc(-c3ccc(C#N)cc3)cc12 [Example 308, 4-(((3R,4S)-1-(1-cyanocyclopropanecarbonyl)-4-methoxypyrrolidin-3-yl)amino)-6-(4-cyanophenyl)pyrrolo[1,2-b]pyridazine-3-carboxamide] | 6.6 nM | 1.5 nM
4 | NC(=O)c1cnn2cc(-c3cncnc3)cc2c1NC1CCOCC1 [Example 32, 6-(5-pyrimidinyl)-4-(tetrahydro-2H-pyran-4-ylamino)pyrrolo[1,2-b]pyridazine-3-carboxamide] | 148 nM | 813 nM
5 | NC(=O)c1cnn2cc(-c3ccccc3)cc2c1N[C@@H]1CCCNC1 [Example 48, (R)-6-phenyl-4-(piperidin-3-ylamino)pyrrolo[1,2-b]pyridazine-3-carboxamide, HCl] | 57.1 nM | 53.4 nM
6 | NC(=O)c1cnn2cc(-c3cnc4ccccc4c3)cc2c1NC1CCOCC1 [Example 35, 6-(3-quinolinyl)-4-(tetrahydro-2H-pyran-4-ylamino)pyrrolo[1,2-b]pyridazine-3-carboxamide] | 40 nM | 40 nM
7 | CC[C@@H]1CN(C(=O)[C@H](C)O)CC[C@H]1Nc1c(C(N)=O)cnn2cc(-c3ccnc(OC)c3)cc12 [Example 134, 4-((3R,4R)-3-ethyl-1-((S)-2-hydroxypropanoyl)piperidin-4-ylamino)-6-(2-methoxypyridin-4-yl)pyrrolo[1,2-b]pyridazine-3-carboxamide] | 7 nM | 4.5 nM

The next compounds have a lower IC50 (GST-JAK3 enzyme) than those just listed; values first:

Row | IC50 (GST-JAK3 enzyme) | IC50 (GST-JAK1 enzyme) | Structure (SMILES)
8 | 1.5 nM | 1.9 nM | CC[C@H]1CN(c2ccc(C#N)cn2)C[C@H]1Nc1c(C(N)=O)cnn2cc(-c3cnn(C)c3)cc12 [Example 175, 4-((3S,4S)-1-(5-cyanopyridin-2-yl)-4-ethylpyrrolidin-3-ylamino)-6-(1-methyl-1H-pyrazol-4-yl)pyrrolo[1,2-b]pyridazine-3-carboxamide]
9 | 0.6 nM | 0.2 nM | C[C@@H]1[C@H]2CN(S(C)(=O)=O)C[C@H]2C[C@H]1Nc1c(C(N)=O)cnn2cc(-c3cnc(N)nc3)cc12 [Example 59, 6-(2-amino-5-pyrimidinyl)-4-(((3aS,4R,5R,6aS)-4-methyl-2-(methylsulfonyl)octahydrocyclopenta[c]pyrrol-5-yl)amino)pyrrolo[1,2-b]pyridazine-3-carboxamide]
10 | 0.4 nM | 1.3 nM | C[C@@H]1[C@H]2CN(S(C)(=O)=O)C[C@H]2C[C@H]1Nc1c(C(N)=O)cnn2cc(-c3nnn(C)n3)cc12 [Example 67, 4-(((3aS,4R,5R,6aS)-4-methyl-2-(methylsulfonyl)octahydrocyclopenta[c]pyrrol-5-yl)amino)-6-(2-methyl-2H-tetrazol-5-yl)pyrrolo[1,2-b]pyridazine-3-carboxamide]
